Source: patent US11766446B2, “Treatment of aging-associated conditions by DNA degradation” (The General Hospital Corporation, priority 2018, dated 2023)

Experiments:
Assay type in all cases: cell-based, human
MRC5 cells [1] = assay: SA-β-gal activity staining in young and old MRC5 cells; conditions: aged MRC5 cells; Ara-C 10 μM, 24 h; FIG. 6F
Source text: (§1) Ara-C, bafilomycin A1 and rapamycin were from Sigma-Aldrich (St. Louis, Mo.); SA β-gal Staining Kit was from Cell Signaling (Danvers, Mass.); TUNEL Apo-Green detection reaction mixture was from Biomake (Houston, Tex.).

MRC5 cells [2] = assay: RT-qPCR expression of IFNI-inducible, inflammatory and cell-cycle genes in young and old cells; conditions: old MRC5 cells
Description: 0.25-1 μg of total RNA was reverse-transcribed with High Capacity cDNA Reverse Transcription kit (Applied Biosystems). Quantitative PCR was then performed using LightCyler® 480 SYBR Master I reagents (Roche) on LightCyler® 96 instrument. Transcript levels were normalized to B2M or GAPDH. Primer pairs used are listed below.

MRC5 cells [3] = assay: TUNEL assay detecting DNA fragmentation (nicked DNA) in young and old MRC5 cells; conditions: Ara-C 10 μM, 24 hr, FIG. 1B
Source text: as §1

MRC5 cells [4] = assay: Immunofluorescence anti-dsDNA staining of nuclear and cytosolic DNA in young and old MRC5 cells; conditions: 24 hr
Description: Cells were cultured in Lab-Tek II 8-well chamber slides, fixed with 4% PFA (10 min), permeabilized with 0.5% Triton X-100 (5 min), then blocked and stained with antibodies against: dsDNA (Santa Cruz, 1:500), 7H2AX, NUP98, pTBK1 (both Cell Signaling, 1:200), LC3 (Novus Biologicals, 1:200) or biotin-LAMP1 (BioLegend, 1:200), followed by fluorescent secondary antibodies (45 min). Methanol fixation was used for anti-pIRF3 (Cell Signaling, 1:200) staining.
Nuclear and cytosolic DNA signals from 5 of 10× or 20× images (˜50-200 cells per image) were quantified using Fiji. Region of interest (ROI) was defined in each image and threshold set to measure fluorescence above background. Nuclear ROI was defined by DAPI staining and its intensity subtracted from total fluorescence to determine cytoplasmic signal. Quantitative fluorescence was presented as integrated density per cell with cell number determined by particle count of DAPI.

[5] = bafilomycin 20 nM, 8 hr, FIG. 2F

**Q.** For `Nc1ccn([C@@H]2O[C@H](CO)[C@@H](O)[C@@H]2O)c(=O)n1` [Ara-C, cytarabine], which “percentage of SA-β-gal+ cells” value (MRC5 cells [1]) is on record?
**A.** Its value is “further increased”.

**Q.** And the “CXCL10 expression (RT-qPCR)” value (MRC5 cells [2]; Ara-C 10 μM, 24 hr, FIG. 2A)?
**A.** Its value is “further increased”.

**Q.** And the “IL-6 expression (RT-qPCR)” value (MRC5 cells [2]; Ara-C 10 μM, 24 hr, FIG. 2A)?
**A.** The value was “further increased”.

**Q.** What about the “MX1 expression (RT-qPCR)” value (MRC5 cells [2]; Ara-C 10 μM, 24 hr, FIG. 2A) of the same compound?
**A.** The value was “further increased”.

**Q.** And the “nicked DNA (TUNEL staining) in old cells” value (MRC5 cells [3])?
**A.** The value was “more intense”.

**Q.** What about the “nuclear DNA in old cells (anti-dsDNA IF)” value (MRC5 cells [4]; old MRC5 cells, Ara-C 10 μM, FIG. 1C) of the same compound?
**A.** Its value is “more nuclear DNA”.

**Q.** And the “extranuclear DNA in young cells (anti-dsDNA IF)” value (MRC5 cells [4]; young MRC5 cells, Ara-C 10 μM, FIG. 1C)?
**A.** The value was “more extranuclear DNA”.

**Q.** Which results are given for `CO/C1=C\C(C)=C\[C@@H](C)[C@@H](O)[C@@H](C)C/C(C)=C/C=C/[C@H](OC)[C@@H]([C@@H](C)[C@@H](O)[C@H](C)[C@@]2(O)C[C@@H](O)[C@H](C)[C@@H](C(C)C)O2)OC1=O` [bafilomycin A1]?
**A.** CXCL10 expression (RT-qPCR) (MRC5 cells [2]; [5]): increased levels; MX1 expression (RT-qPCR) (MRC5 cells [2]; [5]): increased levels

**Q.** For `CCC(=C/[C@H](C)C/C=C/C(C)=C/[C@@H](C)C(=O)[C@@H](C)[C@H](O)[C@@H](C)C/C(C)=C/C(=O)O)/C=C/[C@@H]1OC(=O)C=C[C@@H]1C` [leptomycin B], which “dsDNA staining in nuclei (anti-dsDNA IF)” value (MRC5 cells [4]; LMB-treated cells, 20 nM, FIG. 1D) is on record?
**A.** Its value is “some increase”.

**Q.** And the “cytosolic DNA in old cells (anti-dsDNA IF)” value (MRC5 cells [4]; old MRC5 cells, LMB 20 nM, FIG. 1D)?
**A.** The value was “dramatic reduction”.
